The source of these data is US20180303807A1, “ANDROGEN RECEPTOR LIGANDS” (DUKE UNIVERSITY, priority 2015, published 2018).

Substitutions are numbered along the chain they refer to.

Test [1] concerns the target T1, AR (Homo sapiens, UniProt P10275).
T1 construct: expressed in transfected cells; host or cells: CV1 cells
T1 sequence (P10275 1-920): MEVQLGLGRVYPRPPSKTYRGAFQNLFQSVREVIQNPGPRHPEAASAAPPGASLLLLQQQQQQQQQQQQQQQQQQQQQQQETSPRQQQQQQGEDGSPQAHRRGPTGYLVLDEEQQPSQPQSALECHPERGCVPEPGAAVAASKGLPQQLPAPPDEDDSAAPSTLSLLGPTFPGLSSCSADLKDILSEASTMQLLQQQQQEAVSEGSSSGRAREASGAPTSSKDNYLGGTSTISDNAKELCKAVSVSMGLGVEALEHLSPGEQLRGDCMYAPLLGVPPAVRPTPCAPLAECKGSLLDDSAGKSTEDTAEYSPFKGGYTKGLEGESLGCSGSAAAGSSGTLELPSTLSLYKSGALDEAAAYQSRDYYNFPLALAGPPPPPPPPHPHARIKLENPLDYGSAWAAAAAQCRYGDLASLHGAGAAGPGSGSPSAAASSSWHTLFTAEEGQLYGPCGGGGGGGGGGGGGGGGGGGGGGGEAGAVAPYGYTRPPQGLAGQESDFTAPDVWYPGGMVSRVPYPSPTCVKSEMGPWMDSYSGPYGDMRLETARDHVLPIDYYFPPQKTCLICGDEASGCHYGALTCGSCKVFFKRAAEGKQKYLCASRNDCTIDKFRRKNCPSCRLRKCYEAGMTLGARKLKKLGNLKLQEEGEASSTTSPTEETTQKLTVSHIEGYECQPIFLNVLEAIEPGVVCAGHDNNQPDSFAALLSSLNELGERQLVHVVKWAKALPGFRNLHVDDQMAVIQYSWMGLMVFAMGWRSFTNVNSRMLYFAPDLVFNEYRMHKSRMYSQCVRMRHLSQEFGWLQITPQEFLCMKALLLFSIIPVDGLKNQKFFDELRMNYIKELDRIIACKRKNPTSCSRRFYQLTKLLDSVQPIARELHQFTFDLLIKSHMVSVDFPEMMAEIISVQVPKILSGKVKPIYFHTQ
Put plainly: Reporter gene assay, AR transcriptional (MMTV-Luc) in CV1 cells. Format: cell-based. The following applies: pcDNA-AR + MMTV-Luc, 0.1 nM R1881 plus test compound, 24 hrs, read-out: B1 = AR transcriptional IC50 (μM) in CV1 cells. The procedure, abridged:
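CV1 cells transiently co-transfected with human AR, MMTV-Luc reporter and Renilla-Luc (transfection efficiency and toxicity read-out), then stimulated 24 h with 0.1 nM R1881 plus increasing test compound concentrations. Firefly and Renilla luciferase quantified by dual-luciferase assay; IC50 derived from concentration-response.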
(In general: A reporter such as luciferase makes a cellular process visible.)

Test [2] concerns the target T2, AR (Homo sapiens, UniProt P10275, T878A).
T2 construct: endogenous in cells; host or cells: LNCaP cells
T2 sequence (P10275 1-920 T878A): T1 sequence (P10275 1-920) with T878A
Put plainly: In Cell Western AR degradation assay in LNCaP cells. It counts as cell-based. The settings on record: 18 hrs, greater than 50% degradation at 10 μM (method says 20 μM). The procedure: In Cell Western (AR degradation Assay, Table 2, B10). LNCaP cells were plated in 96-well clear bottom black plates (20K cells/well) in RPMI supplemented with 8% CFS. Following 48 hr incubation, cells were treated with hormone (20 μM test compound) for 18 hrs. Cells were fixed with formaldehyde (3.7%) and permeabilized using PBS (0.1% TRITON X-100). Cells were incubated with anti-AR antibody (N20, 1:2000), washed with PBS (0.1% Tween), and stained with 2nd antibody (Biotium CF770 goat anti-rabbit, 1:2000). AR protein expression was assessed using the LI-COR Odyssey imaging system. DRAQ5 (DNA stain, 1:10,000, Thermo Scientific) was used to normalize AR protein expression.
For B4-B7, scoring system is based on the relative AR target gene agonist/antagonist activity of test compounds when compared to benchmark compounds enzalutamide or bicalutamide. […] The lack of agonist activity is desirable for therapies intended to treat CRPC. For B4 and B6, a score of 1 indicates less agonism (highly desired activity) than benchmark compound enzalutamide, a score of 2 indicates equal agonism to enzalutamide (desirable), a score of 3 indicates agonism between enzalutamide and bicalutamide (less desirable activity), a score of 4 indicates equal agonism to bicalutamide (liability), and a score of 5 indicates higher agonism than bicalutamide (liability). For B5 and B7 a score of 1 indicates higher antagonist efficacy (highly desired activity) than benchmark compound enzalutamide, a score of 2 indicates equal antagonist efficacy to enzalutamide (desirable), a score of 3 indicates antagonist efficacy between enzalutamide and bicalutamide (less desirable activity), a score of 4 indicates antagonist efficacy equal to bicalutamide (liability), and a score of 5 indicates antagonist efficacy worse than bicalutamide (liability) For B9, Compounds that degrade AR (greater than 50% degradation at 10 μM) are indicated.

For orientation: IC50 means the concentration needed to halve the response being measured. With `CC1(C)CC(=O)C2=C(C1)Nc1ccc3ncccc3c1C2c1cc(C(F)(F)F)cc(C(F)(F)F)c1` (stereo not shown) [Compound A50], in test [1], the IC50 was found to be 6 µM. In test [2], the “B9 = AR degradation in LNCaP cells (In-Cell Western)” value (“B9 = AR degradation in LNCaP cells” for short) is reported as “Degrader (Compounds that degrade AR (greater than 50% degradation at 10 μM) are indicated)”.
The corresponding values for `Cc1ccc(C2C3=C(CC(C)(C)CC3=O)Nc3ccc4ncccc4c32)s1` (racemic) [Compound A103, (±)-9,9-dimethyl-12-(5-methylthiophen-2-yl)-8,9,10,12-tetrahydrobenzo[b][4,7]phenanthrolin-11(7H)-one] are 0.3 µM and “Degrader (Compounds that degrade AR (greater than 50% degradation at 10 μM) are indicated)”.
For the compound `CC1(C)CC(=O)C2=C(C1)Nc1ccc3c(c1C2c1ccc(F)c(F)c1)OCO3` (stereo not shown) [Compound A59], the IC50 in test [1] is greater than 10 µM. Besides, the “B9 = AR degradation in LNCaP cells” value in test [2] is given as “Degrader (Compounds that degrade AR (greater than 50% degradation at 10 μM) are indicated)”.
On to `Cc1ccsc1C1C2=C(CC(C)(C)CC2=O)Nc2ccc3ccccc3c21` (stereo not shown) [Compound A117], for which, in test [1], the IC50 amounted to 2.3 µM. In addition, the “B9 = AR degradation in LNCaP cells” value in test [2] is recorded as “Degrader (Compounds that degrade AR (greater than 50% degradation at 10 μM) are indicated)”.
In the same order, the values of `CC1(C)CC(=O)C2=C(C1)Nc1ccc3ncccc3c1C2c1ccsc1` (stereo not shown) [Compound A69] are 6.1 µM and “Degrader (Compounds that degrade AR (greater than 50% degradation at 10 μM) are indicated)”.
For the compound `CC1(C)CC(=O)C2=C(C1)Nc1ccc3ncccc3c1C2c1sccc1Br` (stereo not shown) [Compound A62], the IC50 in test [1] was greater than 10 µM. For the same compound, the “B9 = AR degradation in LNCaP cells” value in test [2] is reported as “Degrader (Compounds that degrade AR (greater than 50% degradation at 10 μM) are indicated)”.
Turning to `CC1(C)CC(=O)C2=C(C1)Nc1ccc3ncccc3c1C2c1csc([N+](=O)[O-])c1` (stereo not shown) [Compound A60], the half-inhibitory concentration (IC50) in test [1] was 1.7 µM. Further, the “B9 = AR degradation in LNCaP cells” value in test [2] is “Degrader (Compounds that degrade AR (greater than 50% degradation at 10 μM) are indicated)”.
In the same order, the values of `CC1(C)CC(=O)C2=C(C1)Nc1ccc3ncccc3c1C2c1cc(Br)cs1` (stereo not shown) [Compound A61] are 1.8 µM and “Degrader (Compounds that degrade AR (greater than 50% degradation at 10 μM) are indicated)”.
On to `CC1(C)CC(=O)C2=C(C1)Nc1ccc3ncccc3c1C2c1cc2ccccc2s1` (racemic) [Compound A92, (±)-12-(benzo[b]thiophen-2-yl)-9,9-dimethyl-8,9,10,12-tetrahydrobenzo[b][4,7]phenanthrolin-11(7H)-one], for which the IC50 in test [1] is 0.9 µM. In addition, the “B9 = AR degradation in LNCaP cells” value in test [2] is on record as “Degrader (Compounds that degrade AR (greater than 50% degradation at 10 μM) are indicated)”.
In the same order, the values of `CC1(C)CC(=O)C2=C(C1)Nc1ccc3ncccc3c1C2c1ccc(Cl)c([N+](=O)[O-])c1` (stereo not shown) [Compound A75] are greater than 10 µM and “Degrader (Compounds that degrade AR (greater than 50% degradation at 10 μM) are indicated)”.
The corresponding values for `CC1(C)CC(=O)C2=C(C1)Nc1ccc3ncccc3c1C2c1c[nH]c2ccc(F)cc12` (stereo not shown) [Compound A68] are greater than 10 µM and “Degrader (Compounds that degrade AR (greater than 50% degradation at 10 μM) are indicated)”.
In the same order, the values of `CC1(C)CC(=O)C2=C(C1)Nc1ccc3ncccc3c1C2c1ccc(Br)s1` (stereo not shown) [Compound A63] are 1.9 µM and “Degrader (Compounds that degrade AR (greater than 50% degradation at 10 μM) are indicated)”.
Regarding `Cc1ccsc1C1C2=C(CC(C)(C)CC2=O)Nc2ccc3ncccc3c21` (stereo not shown) [Compound A114], the IC50 in test [1] worked out at 1.1 µM. Besides, in test [2], the “B9 = AR degradation in LNCaP cells” value is “Degrader (Compounds that degrade AR (greater than 50% degradation at 10 μM) are indicated)”.
Turning to `CC1(C)CC(=O)C2=C(C1)Nc1ccc3ncccc3c1C2c1ccc(F)c(Br)c1` (stereo not shown) [Compound A74], in test [1], the IC50 was determined as 8.6 µM. In test [2], the “B9 = AR degradation in LNCaP cells” value is “Degrader (Compounds that degrade AR (greater than 50% degradation at 10 μM) are indicated)”.
